Assay results: PubChem BioAssay AID1963981 (Molecular Pharmacology Branch, DTP, NCI, 2024)
pIC50: −log10 of the molar value.

Tested on: 354836-022-R-J1-PDC multicell spheroid viability
Experiment: Anticancer human tumor 354836-022-R-J1-PDC patient-derived head and neck squamous cell carcinoma cell line growth inhibition [PI3K]
Details: for pIC50: curve of first compound; for viability, T/C: stronger effect = lower value
In short: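 High-throughput combination screen: PI3K inhibitors crossed with targeted small molecules on complex spheroids of tumor cells, HUVEC and MSCs at 37 degrees C, 5% CO2. Top concentration was at or near clinical Cmax (otherwise 10 microM), with half-log decrements.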

[1] = second compound 0.0316 µM, first compound 0.0316 µM
[2] = second compound 0.0316 µM, first compound 0.1 µM
[3] = second compound 0.0316 µM, first compound 0.316 µM
[4] = second compound 0.0316 µM, first compound 1 µM
[5] = second compound 0.0316 µM, first compound 3.16 µM
[6] = second compound 0.0316 µM, first compound 10 µM
[7] = second compound 0.1 µM, first compound 0.0316 µM
[8] = second compound 0.1 µM, first compound 0.1 µM
[9] = second compound 0.1 µM, first compound 0.316 µM
[10] = second compound 0.1 µM, first compound 1 µM
[11] = second compound 0.1 µM, first compound 3.16 µM
[12] = second compound 0.1 µM, first compound 10 µM
[13] = second compound 0.316 µM, first compound 0.0316 µM
[14] = second compound 0.316 µM, first compound 0.1 µM
[15] = second compound 0.316 µM, first compound 0.316 µM
[16] = second compound 0.316 µM, first compound 1 µM
[17] = second compound 0.316 µM, first compound 3.16 µM
[18] = second compound 0.316 µM, first compound 10 µM
[19] = second compound 1 µM, first compound 0.0316 µM
[20] = second compound 1 µM, first compound 0.1 µM
[21] = second compound 1 µM, first compound 0.316 µM
[22] = second compound 1 µM, first compound 1 µM
[23] = second compound 1 µM, first compound 3.16 µM
[24] = second compound 1 µM, first compound 10 µM
[25] = second compound 3.16 µM, first compound 0.0316 µM
[26] = second compound 3.16 µM, first compound 0.1 µM
[27] = second compound 3.16 µM, first compound 0.316 µM
[28] = second compound 3.16 µM, first compound 1 µM
[29] = second compound 3.16 µM, first compound 3.16 µM
[30] = second compound 3.16 µM, first compound 10 µM
[31] = second compound 10 µM, first compound 0.0316 µM
[32] = second compound 10 µM, first compound 0.1 µM
[33] = second compound 10 µM, first compound 0.316 µM
[34] = second compound 10 µM, first compound 1 µM
[35] = second compound 10 µM, first compound 3.16 µM
[36] = second compound 10 µM, first compound 10 µM
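Further: spheroids exposed to agents for seven days before the viability read.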

With `C#Cc1c(F)ccc2cc(O)cc(-c3ncc4c(N5CC6CCC(C5)N6)nc(OCC56CCCN5CC(F)C6)nc4c3F)c12` (centres undefined) + Cc1nc(NC(=O)N2CCCC2C(N)=O)sc1-c1ccnc(C(C)(C)C(F)(F)F)c1 as the compound, how does the pIC50 (second compound 0.0316 µM) read?
Its pIC50 is under 5.00.

What about the pIC50 (second compound 0.1 µM) of the same compound?
Its pIC50 is under 5.00.

What about the pIC50 (second compound 0.316 µM) of the same compound?
The pIC50 was under 5.00.

What about the pIC50 (second compound 1 µM) of the same compound?
Its pIC50 is under 5.00.

And the pIC50 (second compound 3.16 µM)?
Its pIC50 is under 5.00.

What about the pIC50 (second compound 10 µM) of the same compound?
Its pIC50 is over 7.50.

What about the viability, T/C [1] of the same compound?
The viability, T/C was 95%.

And the viability, T/C [2]?
Its viability, T/C is 99.3%.

And the viability, T/C [3]?
The viability, T/C was 103%.

And the viability, T/C [4]?
The viability, T/C was 95.4%.

And the viability, T/C [5]?
Its viability, T/C is 106%.

And the viability, T/C [6]?
Its viability, T/C is 93.9%.

What about the viability, T/C [7] of the same compound?
The viability, T/C was 98.5%.

And the viability, T/C [8]?
Its viability, T/C is 101%.

What about the viability, T/C [9] of the same compound?
Its viability, T/C is 98.4%.

What about the viability, T/C [10] of the same compound?
The viability, T/C was 87.2%.

What about the viability, T/C [11] of the same compound?
Its viability, T/C is 96%.

And the viability, T/C [12]?
The viability, T/C was 93.6%.

And the viability, T/C [13]?
Its viability, T/C is 76%.

And the viability, T/C [14]?
The viability, T/C was 83.9%.

What about the viability, T/C [15] of the same compound?
The viability, T/C was 91.3%.

What about the viability, T/C [16] of the same compound?
Its viability, T/C is 94.1%.

What about the viability, T/C [17] of the same compound?
Its viability, T/C is 83.8%.

What about the viability, T/C [18] of the same compound?
Its viability, T/C is 85.3%.

And the viability, T/C [19]?
Its viability, T/C is 75.9%.

What about the viability, T/C [20] of the same compound?
Its viability, T/C is 90.5%.

What about the viability, T/C [21] of the same compound?
Its viability, T/C is 77.8%.

And the viability, T/C [22]?
The viability, T/C was 76.2%.

And the viability, T/C [23]?
The viability, T/C was 92.7%.

And the viability, T/C [24]?
The viability, T/C was 62.2%.

And the viability, T/C [25]?
The viability, T/C was 55.6%.

What about the viability, T/C [26] of the same compound?
The viability, T/C was 60.7%.

What about the viability, T/C [27] of the same compound?
The viability, T/C was 57.3%.

And the viability, T/C [28]?
The viability, T/C was 63.4%.

And the viability, T/C [29]?
Its viability, T/C is 52.6%.

And the viability, T/C [30]?
Its viability, T/C is 55.7%.

And the viability, T/C [31]?
The viability, T/C was 34.2%.

And the viability, T/C [32]?
Its viability, T/C is 32.7%.

And the viability, T/C [33]?
Its viability, T/C is 35.6%.

And the viability, T/C [34]?
Its viability, T/C is 36.3%.

And the viability, T/C [35]?
The viability, T/C was 36.6%.

And the viability, T/C [36]?
The viability, T/C was 26%.

How did the pIC50 (second compound 0.0316 µM) turn out when `CC1(C)CCC(Nc2ncc(C(F)(F)F)c(-c3c[nH]c4c(P(C)(C)=O)c(C#N)ccc34)n2)CN1` (centres undefined) + Cc1nc(NC(=O)N2CCCC2C(N)=O)sc1-c1ccnc(C(C)(C)C(F)(F)F)c1 was run?
Its pIC50 is over 7.50.

And the pIC50 (second compound 0.1 µM)?
Its pIC50 is over 7.50.

And the pIC50 (second compound 0.316 µM)?
Its pIC50 is over 7.50.

And the pIC50 (second compound 1 µM)?
The pIC50 was over 7.50.

And the pIC50 (second compound 3.16 µM)?
Its pIC50 is over 7.50.

What about the pIC50 (second compound 10 µM) of the same compound?
Its pIC50 is over 7.50.

What about the viability, T/C [1] of the same compound?
Its viability, T/C is 20.2%.

And the viability, T/C [2]?
The viability, T/C was 20.2%.

And the viability, T/C [3]?
The viability, T/C was 26.7%.

And the viability, T/C [4]?
The viability, T/C was 25.1%.

What about the viability, T/C [5] of the same compound?
The viability, T/C was 29.1%.

And the viability, T/C [6]?
Its viability, T/C is 2.24%.

What about the viability, T/C [7] of the same compound?
Its viability, T/C is 22.8%.

And the viability, T/C [8]?
The viability, T/C was 21.6%.

And the viability, T/C [9]?
The viability, T/C was 25.9%.

What about the viability, T/C [10] of the same compound?
Its viability, T/C is 23%.

And the viability, T/C [11]?
Its viability, T/C is 28.9%.

And the viability, T/C [12]?
Its viability, T/C is 1.52%.

What about the viability, T/C [13] of the same compound?
Its viability, T/C is 17.8%.

What about the viability, T/C [14] of the same compound?
Its viability, T/C is 20%.

What about the viability, T/C [15] of the same compound?
The viability, T/C was 19.3%.

And the viability, T/C [16]?
The viability, T/C was 25%.

And the viability, T/C [17]?
The viability, T/C was 24%.

And the viability, T/C [18]?
Its viability, T/C is 1.82%.

And the viability, T/C [19]?
Its viability, T/C is 14.9%.

And the viability, T/C [20]?
The viability, T/C was 18%.

What about the viability, T/C [21] of the same compound?
Its viability, T/C is 14.6%.

What about the viability, T/C [22] of the same compound?
Its viability, T/C is 20.5%.

And the viability, T/C [23]?
The viability, T/C was 20.2%.

What about the viability, T/C [24] of the same compound?
Its viability, T/C is 1.74%.

And the viability, T/C [25]?
Its viability, T/C is 13.2%.

And the viability, T/C [26]?
The viability, T/C was 15.6%.

And the viability, T/C [27]?
Its viability, T/C is 14.9%.

And the viability, T/C [28]?
Its viability, T/C is 15.1%.

And the viability, T/C [29]?
Its viability, T/C is 18.4%.

What about the viability, T/C [30] of the same compound?
Its viability, T/C is 1%.

And the viability, T/C [31]?
Its viability, T/C is 12.7%.

And the viability, T/C [32]?
Its viability, T/C is 10.6%.

What about the viability, T/C [33] of the same compound?
Its viability, T/C is 11.6%.

What about the viability, T/C [34] of the same compound?
Its viability, T/C is 17.2%.

What about the viability, T/C [35] of the same compound?
Its viability, T/C is 12.3%.

What about the viability, T/C [36] of the same compound?
Its viability, T/C is 0.79%.
